In PMC12481249:
Where two headings read alike, the source gives them in different places. Blank lines part the entries; values can stand above or below the compound they belong to.

Tests used:
MCF-7 Br Ca cell line = assay: MTT cytotoxicity (antiproliferative) assay
Description: Cytotoxic activity evaluation
To measure the cytotoxic actvity of the synthesized naphthalen-1-yloxyacetamide
tethered acrlamide derivatives 5a-j and 6a,b in breast adenocarcinoma (MCF-7) cell line
(ATCC Cat. No. HTB-22). Cell viability assay was assessed using MTT assay method.
Cells at density of 1 x 104 were seeded in a 96-well plate at 37 °C for 24 h under 5%
CO2. After incubation, the cells were treated with different concentrations of the
investigated naphthalen-1-yloxyacetamide tethered acrlamide derivatives 5a-j and 6a,b
and incubated for 24 h, then 20 l of MTT solution at 5 mg/mL was applied and
incubated for 4 h at 37 °C. Dimethyl sulphoxide (DMSO) in volume of 100 µl was
added to each well to dissolve the purple formazan that had formed. The color intensity
of the formazan product, which represents the growth condition of the cells, is quantified
by using an ELISA plate reader (EXL 800, USA) at 570 nm absorbance. The experimental conditions were carried out with at least three replicates, and the experiments were repeated at least three times.

aromatase = target: aromatase; set-up: method as in PMID 31416738; conditions: cited from earlier work
MCF-7 Br Ca cells [1] = assay: FITC-Annexin V/PI apoptosis assay; format: cell-based; conditions: MCF-7, 48 h
Bcl-2 = Bcl-2 level assay in MCF-7 cells; format: cell-based; conditions: MCF-7, qRT-PCR technique (SI: ELISA kit), IC50 concentration
Description: (§1) Programmed cell death, or apoptosis, is a complex series of biochemical processes.[50] Pro-apoptotic proteins include Bad, Bax, Bid and Bim, while anti-apoptotic members include Bcl-2 and Bc-LXI.[51,52] The anti-apoptotic proteins prevent cytochrome-c from release, which inhibits apoptosis, while pro-apoptotic members activate the release of cytochrome-c.[53] When there is a higher ratio of pro-apoptotic proteins than anti-apoptotic ones, the outer mitochondrial membrane becomes permeable leading to a cascade of events.[54] The cytochrome-c is released, which activates caspase 9, which in turn triggers caspase 3, which triggers apoptotic processes.[55] […] According to the data, the tested compound's Bax gen level increased noticeably compared with control. […]
(§2) Annexin V-FITC/ PI dye for 15 min in the dark at 37 °C. The samples were immediately analyzed using FACS Calibur flow cytometer (Becton and Dickinson, Heidelberg, […]
(§3) Bcl-2, Bax and Caspase 9 activities in MCF-7 Br Ca cells were detected in the presence of conjugate 5d at the IC50 concentration (µM). The levels of anti-apoptotic marker Bcl-2, apoptotic markers Bax as well as Caspase 9 were assessed using appropriate ELISA kit. […]
(§4) with IC50 concentration of compound 5d. […] The samples were measured at 450 nm in ROBONEK P2000 ELISA reader. […]

MCF-7 Br Ca cells [2] = assay: DNA flow cytometry cell cycle analysis; format: cell-based; conditions: MCF-7, at the IC50 value for 48 h
Description: It is frequently utilized in cell biology to comprehend growth regulation, cell proliferation and the impact of both drugs and genetic alterations on cellular division.[44] Recognizing and manipulating the phase at which cell cycle arrest occurs can improve the therapeutic efficacy and selectivity of chemotherapeutic drugs, as many cancer therapies target rapidly proliferating cells.[45] The most cytotoxic naphthalen-1-yloxyacetamide-tethered acrylamide conjugate, 5d, was chosen in order to further assess its impact on the advancement on cell cycle in MCF-7 Br Ca cells. […] There was also a control experiment that receives no treatment. According to Flow cytometric study, naphthalen-1-yloxyacetamide-tethered acrylamide conjugate 5d treatment causes a G1 stoppage that is almost 1.4-times greater than that of the control (Fig. 4).
S4.2.3. Cell cycle analysis of compound 5d
Cell cycle analysis in MCF-7 cells was investigated using fluorescent Annexin V-FITC/ PI detection kit (BioVision EZCellTM Cell Cycle Analysis Kit Catalog #K920) by flow […]
washed twice in PBS. After that, the cells were incubated at 37 °C and 5% CO2. The […]
twice in PBS, fixed with 70% ethanol, rinsed again with PBS. Afterward, medium was stained with DNA fluorochrome PI for 15 min at 37 °C. The samples were immediately analyzed using Facs Calibur flow cytometer (Becton and Dickinson, Heidelberg, […]
S4.2.4. […]

aromatase enzyme = target: T1, aromatase enzyme (Homo sapiens, UniProt P11511); assay: Aromatase inhibition assay (ELISA method kit); format: biochemical; conditions: five concentrations
T1 construct: IC50 values against aromatase enzyme in MCF-7 Br Ca cells treated with; endogenous in cells; host or cells: MCF-7
T1 sequence (P11511 1-503): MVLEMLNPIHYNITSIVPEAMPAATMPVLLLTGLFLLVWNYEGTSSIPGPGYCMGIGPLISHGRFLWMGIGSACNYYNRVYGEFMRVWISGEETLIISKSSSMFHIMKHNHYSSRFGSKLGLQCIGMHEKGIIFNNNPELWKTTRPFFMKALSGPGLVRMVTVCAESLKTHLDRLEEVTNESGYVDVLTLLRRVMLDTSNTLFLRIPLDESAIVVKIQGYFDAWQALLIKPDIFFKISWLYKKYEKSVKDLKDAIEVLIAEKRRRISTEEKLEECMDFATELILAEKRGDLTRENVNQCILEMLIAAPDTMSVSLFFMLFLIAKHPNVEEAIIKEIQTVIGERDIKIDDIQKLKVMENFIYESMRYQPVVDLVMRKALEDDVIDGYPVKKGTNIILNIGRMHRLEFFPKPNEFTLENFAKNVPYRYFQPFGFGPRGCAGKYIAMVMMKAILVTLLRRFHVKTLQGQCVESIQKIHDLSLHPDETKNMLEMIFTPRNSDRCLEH

caspase 9 = assay: Caspase 9 level assay in MCF-7 cells; format: cell-based; conditions: MCF-7, qRT-PCR technique (SI: ELISA kit), IC50 concentration
Description: An essential initiator caspase in the intrinsic apoptotic process is caspase 9.[56] It is essential for inducing cell death in response to internal stress such as oxidative stress, DNA damage, or oncogene activation conditions, which are frequently present in cancer cells.[57] Therefore, therapeutic strategies that enhance or restore its activity can potentially overcome apoptosis resistance in tumors.[58] In this context, naphthalene-1-yloxyacetamide tethered acrylamide conjugate 5d were evaluated as caspase 9 activator against MCF-7 cells using qRT-PCR technique. […] It is worth mentioning that, the level of caspase 9 protein level is increased 8.2-fold more than the negative control.
Apoptosis in MCF-7 cells was investigated using fluorescent Annexin V-FITC/ PI detection kit (BioVision Annexin V-FITC Apoptosis Detection Kit, Catalog #: K101) by […]
as §2
6. […]
as §3, §4

Bax = Bax level assay in MCF-7 cells; format: cell-based; conditions: MCF-7, qRT-PCR technique (SI: ELISA kit), IC50 concentration
Description: as §1, §2, §3, §4

[3] = Homo sapiens, MCF7, read-out: IC50 MCF-7, MTT, MCF-7 Br Ca cell line, mean ± SD (n = 3)

Compound: O=C(COc1cccc2ccccc12)NNC(=O)/C(=C/c1ccc(Cl)cc1)NC(=O)c1ccccc1 [5a, (Z)-N-(1-(4-Chlorophenyl)-3-(2-(2-(naphthalen-1-yloxy)acetyl)hydrazineyl)-3-oxoprop-1-en-2-yl)benzamide]
IC50 (MCF-7 Br Ca cell line; [3]): 51.8 ± 1.51 µM

Compound: O=S(=O)(NCc1cccc(CNS(=O)(=O)c2ccc3ccccc3c2)c1)c1ccc2ccccc2c1 [IV]
IC50 (aromatase): 0.21 µM

Compound: COc1ccc(C(=O)N/C(=C\c2ccco2)C(=O)NNC(=O)COc2cccc3ccccc23)cc1 [6b, (Z)-N-(1-(Furan-2-yl)-3-(2-(2-(naphthalen-1-yloxy)acetyl)hydrazineyl)-3-oxoprop-1-en-2-yl)-4-methoxybenzamide]
IC50 (MCF-7 Br Ca cell line; [3]): 11.5 ± 0.76 µM

Compound: COc1cc(/C=C(\NC(=O)c2ccccc2)C(=O)NNC(=O)COc2cccc3ccccc23)cc(OC)c1OC [5i, (Z)-N-(3-(2-(2-(Naphthalen-1-yloxy)acetyl)hydrazineyl)-3-oxo-1-(3,4,5-trimethoxyphenyl)prop-1-en-2-yl)benzamide]
IC50 (MCF-7 Br Ca cell line; [3]): 16.9 ± 0.82 µM

Compound: COc1ccc(C(=O)N/C(=C\c2cc(OC)c(OC)c(OC)c2)C(=O)NNC(=O)COc2cccc3ccccc23)cc1 [5j, (Z)-4-Methoxy-N-(3-(2-(2-(naphthalen-1-yloxy)acetyl)hydrazineyl)-3-oxo-1-(3,4,5-trimethoxyphenyl)prop-1-en-2-yl)benzamide]
IC50 (MCF-7 Br Ca cell line; [3]): 21.2 ± 0.92 µM

Compound: O=C(COc1cccc2ccccc12)NNC(=O)/C(=C/c1ccc(Br)cc1)NC(=O)c1ccccc1 [5b, (Z)-N-(1-(4-Bromophenyl)-3-(2-(2-(naphthalen-1-yloxy)acetyl)hydrazineyl)-3-oxoprop-1-en-2-yl)benzamide]
IC50 (MCF-7 Br Ca cell line; [3]): 30.7 ± 1.18 µM

IC50 (aromatase enzyme): 0.078 µM
Compound: COc1ccc(/C=C(\NC(=O)c2ccccc2)C(=O)NNC(=O)COc2cccc3ccccc23)cc1 [5d, (Z)-N-(1-(4-methoxyphenyl)-3-(2-(2-(naphthalen-1-yloxy)acetyl)hydrazineyl)-3-oxoprop-1-en-2-yl)benzamide]
early apoptosis fold increase vs control (MCF-7 Br Ca cells [1]): 33.6 fold
late apoptosis fold increase vs control (MCF-7 Br Ca cells [1]): 42.0 fold
late apoptotic cells percentage (MCF-7 Br Ca cells [1]; IC50 concentration, control untreated 0.14%): 5.88%
early apoptosis percentage (MCF-7 Br Ca cells [1]; IC50 concentration, no treatment control 0.57%): 19.17%
IC50 (MCF-7 Br Ca cell line; [3]): 3.03 µM
IC50 (MCF-7 Br Ca cell line; read-out: IC50 MCF-7, MTT, MCF-7 Br Ca cell line, mean ± SD (n = 3)): 2.33 ± 0.1 µM
Bcl-2 gene level factor vs negative control (Bcl-2): 0.3
G1 stoppage relative to control (MCF-7 Br Ca cells [2]): ~1.4 times
caspase 9 level fold vs negative control (caspase 9): 8.2 fold
Bax level fold vs untreated MCF-7 cells (Bax): 4.0 fold

Compound: O=C(COc1cccc2ccccc12)NNC(=O)/C(=C/c1ccco1)NC(=O)c1ccccc1 [6a, (Z)-N-(1-(Furan-2-yl)-3-(2-(2-(naphthalen-1-yloxy)acetyl)hydrazineyl)-3-oxoprop-1-en-2-yl)benzamide]
IC50 (MCF-7 Br Ca cell line; [3]): 9.18 ± 0.66 µM

IC50 (aromatase enzyme): 0.143 µM
Compound: O=C(COc1cccc2ccccc12)NNC(=O)/C(=C/c1ccc([N+](=O)[O-])cc1)NC(=O)c1ccccc1 [5c, (Z)-N-(3-(2-(2-(Naphthalen-1-yloxy)acetyl)hydrazineyl)-1-(4-nitrophenyl)-3-oxoprop-1-en-2-yl)benzamide]

Compound: COc1ccc(/C=C(\NC(=O)c2ccccc2)C(=O)NNC(=O)COc2cccc3ccccc23)c(OC)c1OC [5h, (Z)-N-(3-(2-(2-(Naphthalen-1-yloxy)acetyl)hydrazineyl)-3-oxo-1-(2,3,4-trimethoxyphenyl)prop-1-en-2-yl)benzamide]
IC50 (MCF-7 Br Ca cell line; [3]): 25.9 ± 1.41 µM

Compound: COc1ccc(/C=C(\NC(=O)c2ccccc2)C(=O)NNC(=O)COc2cccc3ccccc23)cc1OC [5f, (Z)-N-(1-(3,4-Dimethoxyphenyl)-3-(2-(2-(naphthalen-1-yloxy)acetyl)hydrazineyl)-3-oxoprop-1-en-2-yl)benzamide]
IC50 (MCF-7 Br Ca cell line; [3]): 28.7 ± 1.45 µM

IC50 (aromatase enzyme): 0.093 µM
Compound: CN(C)c1ccc(/C=C(\NC(=O)c2ccccc2)C(=O)NNC(=O)COc2cccc3ccccc23)cc1 [5e, (Z)-N-(1-(4-(Dimethylamino)phenyl)-3-(2-(2-(naphthalen-1-yloxy)acetyl)hydrazineyl)-3-oxoprop-1-en-2-yl)benzamide]

Compound: O=C(COc1cccc2ccccc12)NNC(=O)/C(=C/c1cc(Br)c(O)c(Br)c1)NC(=O)c1ccccc1 [5g, (Z)-N-(1-(3,5-Dibromo-4-hydroxyphenyl)-3-(2-(2-(naphthalen-1-yloxy)acetyl)hydrazineyl)-3-oxoprop-1-en-2-yl)benzamide]
IC50 (MCF-7 Br Ca cell line; [3]): 18.5 ± 1.26 µM
